Test: Acute dosing study: serum lutein kinetics, pharmacokinetic parameters and bioavailability
Type: in vivo, neonatal Sprague-Dawley rats
Conditions: 10 mg/kg body weight of lutein; for Serum lutein concentration: P10 pups
Experimental: To determine the bioavailability of lutein in neonatal Sprague-Dawley rats, an acute dosing study was conducted. The procedure was approved by the Institutional Animal Care and Use Committee of the University of Alabama (Number: 21-08-4864, 23 September 2021). On postnatal day 10 (P10), neonatal rats were randomly selected from litters and received a single dose of either free lutein (i.e., lutein ester dissolved in olive oil) or lutein emulsion, both containing 10 mg/kg body weight of lutein. The dose was administered to the pup’s mouth via a pipette. The concentration of lutein ester in the oil phase was 0.004 g/mL. The lutein dosage was selected based on our pilot study and previous studies. It is higher than the dosage used in human newborns but is considered acceptable and safe to be used in pharmacokinetic studies in rodent models. At 0.5 h, 1 h, 2 h, 4 h, 6 h, 12 h, and 24 h after dosing, pups (n = 3/time point/group) were euthanized, and blood, liver, spleen, brain, and eye were collected. Serum was obtained by centrifuging blood samples and tissues were stored at −80 °C until time of analysis. A group of rat pups (n = 3) not receiving treatments were used to measure the baseline lutein concentrations. Throughout the study, maternal rats consumed a purified diet with no lutein (D19120501, Research Diets Inc, New Brunswick, NJ, USA) (Table 1).
Serum and tissue lutein concentration was determined using an ultra-performance liquid chromatography (UPLC) system (Waters, Milford, MA, USA) equipped with a photo-diode array detector (PDA)/MS/MS, according to our well-established methods with slight modification. As for the serum, 100 μL of the sample was incubated with 2 mL of 100% ethanol at room temperature for an hour for lipid extraction. For the tissues, ~0.1 g of the sample was weighed, homogenized, and incubated with 2 mL of 100% ethanol at room temperature for an hour. An amount of 1 mL of 5% (w/v) potassium hydroxide was added to the sample and incubated in a water bath at 60 °C for 45 min for saponification. Upon saponification, samples were allowed to cool for about 15 min, and then an addition of 4 mL of hexane containing 0.1% butylated hydroxytoluene (w/v) and 2 mL of deionized water was added. The mixture was vortexed for 20 s and centrifuged at 1600 rpm at 25 °C for 15 min. The upper layer was collected following centrifugation and dried under nitrogen at 37 °C. The dried sample was then rinsed twice with hexane, dried, and reconstituted with 100 µL of acetonitrile-methanol. The reconstituted sample was centrifuged for 2 min to remove any possible precipitation. For UPLC analysis, 10 µL of the sample was injected into the Waters Acquity UPLC HSS T3 column. Solvent A was acetonitrile: methanol (50:50, v/v), and solvent B was 100% isopropanol. The mobile phase was made up of solvent A and solvent B in a volume ratio of 95:5 (v/v). The flow rate was set as 0.5 mL/min, and the column temperature was maintained at 35 °C. The detection wavelength was set at 446 nm. Retinyl acetate (Sigma-Aldrich, St. Louis, MO, USA) was used as the internal standard.
Bioavailability is defined as the rate and range of the active compound to the systemic circulation through a single oral administration. It can be evaluated by pharmacokinetic parameters derived from the compound kinetic curve (serum concentration vs. time). In the acute dosing study, pharmacokinetic parameters, including maximum lutein concentration (Cmax), time to reach Cmax (Tmax), and area under the time-concentration curve (AUC0–24) were determined. Cmax and Tmax were read directly from the serum lutein kinetic curve. The area under the time-concentration curve (AUC0–24) was calculated by trapezoid rule with linear interpolation using GraphPad Prism 8.0 (San Diego, CA, USA). […]

## Lutein ester [Free Lutein]
0.5 h after single oral dose
  Serum lutein concentration: 0.00 ± 0.00 nmol/L
6 h after single oral dose
  Serum lutein concentration: 132.91 ± 64.96 nmol/L
24 h after single oral dose
  Serum lutein concentration: 43.16 ± 8.53 nmol/L
Single oral dose
  Tmax, time to reach Cmax (serum): 4 h
Single oral dose, read-out: Cmax, maximum serum lutein concentration
  Cmax: 145 ± 49 nM
Single oral dose, serum
  AUC0–24: 1987 ± 247.90 nmol/L∗h
